According to patent US12637471B2, “Heterocyclic compounds, compositions, methods of preparation and uses thereof” (Organon R&D Finland Ltd, priority 2021, dated 2026):

Legend:
[1] = phase II clinical trial, endometriosis; trial was terminated; cited from earlier work
[2] = biological target: T1, Recombinant human AKR1C3 (17β-HSD5) protein (Homo sapiens, UniProt P42330); experiment: Inhibition of AKR1C3 (17β-hydroxysteroid dehydrogenase type 5) enzyme, fluorescence assay; format: biochemical; details: inhibitor at 500 nM
T1 construct: made in house; host or cells: E. coli
T1 sequence (P42330 1-323): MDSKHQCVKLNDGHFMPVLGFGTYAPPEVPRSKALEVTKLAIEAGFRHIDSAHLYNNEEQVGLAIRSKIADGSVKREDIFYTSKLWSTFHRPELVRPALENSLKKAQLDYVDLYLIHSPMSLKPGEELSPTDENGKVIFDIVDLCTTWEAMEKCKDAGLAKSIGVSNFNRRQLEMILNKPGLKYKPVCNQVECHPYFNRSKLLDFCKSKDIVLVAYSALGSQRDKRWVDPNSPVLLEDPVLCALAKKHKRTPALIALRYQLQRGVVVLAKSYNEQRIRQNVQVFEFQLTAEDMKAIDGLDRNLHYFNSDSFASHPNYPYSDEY
Method in brief: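 Percent inhibition at 500 nM compound, derived from substrate conversion; product alcohol measured by fluorescence (ex 420, em 510 nm) against a 1 μM–10 nM standard curve. Reaction: 27 nM recombinant AKR1C3, 1 μM ketone substrate, 1 mM NADPH, phosphate/EDTA buffer pH 7.4, 1% DMSO, RT for 60–120 min.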

[3] = biological target: T2, Recombinant human aldo-keto reductase family 1 member C2 (AKR1C2) protein (Homo sapiens, UniProt P52895); experiment: Inhibition of the aldo-keto reductase family 1 member C2, 3H-dihydrotestosterone conversion; format: biochemical; details: inhibitor at 10 μM
T2 construct: made in house; host or cells: Sf-9 insect cells (baculovirus)
T2 sequence (P52895 1-323): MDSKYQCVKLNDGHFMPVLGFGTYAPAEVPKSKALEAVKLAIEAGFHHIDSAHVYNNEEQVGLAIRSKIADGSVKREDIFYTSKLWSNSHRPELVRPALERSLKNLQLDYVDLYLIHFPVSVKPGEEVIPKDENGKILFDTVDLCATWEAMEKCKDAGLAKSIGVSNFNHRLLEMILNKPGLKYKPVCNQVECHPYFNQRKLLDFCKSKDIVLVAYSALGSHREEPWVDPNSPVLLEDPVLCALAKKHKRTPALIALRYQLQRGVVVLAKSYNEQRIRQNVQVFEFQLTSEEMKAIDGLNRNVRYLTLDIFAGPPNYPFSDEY
Method in brief: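 Single-point screen at 10 μM inhibitor, 1% DMSO: [3H]DHT (6.25 nM) reduction to 3α-diol by baculovirus-made AKR1C2 (13.6 nM), pH 7.4 phosphate buffer, 1 mM NADPH, 37 °C for 45 min. Radio-UPLC quantified product versus substrate to give percent inhibition.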

[4] = biological target: T3, 17β-Hydroxysteroid Dehydrogenase Type 2 Enzyme (17β-HSD2) (Homo sapiens, UniProt P37059); experiment: Inhibition of the 17β-hydroxysteroid dehydrogenase type 2 enzyme, 3H-testosterone conversion; format: biochemical; details: inhibitor at 10 μM
T3 construct: made in house; host or cells: Sf-9 insect cells (baculovirus)
T3 sequence (P37059 1-387): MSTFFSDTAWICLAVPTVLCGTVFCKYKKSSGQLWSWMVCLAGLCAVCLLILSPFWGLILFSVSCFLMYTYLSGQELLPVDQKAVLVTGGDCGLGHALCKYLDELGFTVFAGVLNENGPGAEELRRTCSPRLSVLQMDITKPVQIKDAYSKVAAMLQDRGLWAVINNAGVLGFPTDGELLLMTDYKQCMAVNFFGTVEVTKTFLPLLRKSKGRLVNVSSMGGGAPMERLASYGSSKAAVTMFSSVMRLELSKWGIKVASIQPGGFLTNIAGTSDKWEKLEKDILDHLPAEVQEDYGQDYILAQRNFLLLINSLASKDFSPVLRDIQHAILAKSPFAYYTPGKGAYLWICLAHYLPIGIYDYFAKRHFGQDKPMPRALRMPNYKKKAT
Method in brief: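 Single-point screen at 10 μM inhibitor, 1% DMSO: Sf-9-expressed human enzyme (105 nM), NAD 1 mM, ³H-labelled testosterone 56.25 nM, pH 8.5 phosphate/EDTA buffer, 30 min, room temperature. After TCA quench, substrate and product radioactivity quantified by UPLC with scintillation detection; inhibition percent from conversion.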

For CN(CCC(=O)O)C(=O)c1ccc2c(c1)CC[C@@H]1[C@@H]2CC[C@]2(C)C(c3cncc(F)c3)=CC[C@@H]12 [BAY-1128688], the “bilirubin levels of patients” value [1] is listed as “raised bilirubin levels”.

For N#CC(=C1CCN(C(=O)N2CCn3ncnc3C2)CC1)c1cccc(Cl)c1 [Compound 157, 2-(3-chlorophenyl)-2-(1-(5,6,7,8-tetrahydro-[1,2,4]triazolo[1,5-a]pyrazine-7-carbonyl)piperidin-4-ylidene)acetonitrile], the inhibition at 0.5 µM [2] was 99%, the inhibition at 10 µM [3] was 2% and the inhibition at 10 µM [4] was 8%.

With N#CC(=C1CCN(C(=O)N2CCc3nocc3C2)CC1)c1cc(F)cc(F)c1 [Compound 158, 2-(3,5-difluorophenyl)-2-(1-(4,5,6,7-tetrahydroisoxazolo[4,3-c]pyridine-5-carbonyl)piperidin-4-ylidene)acetonitrile] the inhibition at 0.5 µM [2] was 101%, the inhibition at 10 µM [3] was 22% and the inhibition at 10 µM [4] was -4%.

Compound N#CC(=C1CCN(C(=O)N2CCc3nocc3C2)CC1)c1ccc(OC(F)(F)F)cc1 [Compound 159, 2-(1-(4,5,6,7-tetrahydroisoxazolo[4,3-c]pyridine-5-carbonyl)piperidin-4-ylidene)-2-(4-(trifluoromethoxy)phenyl)acetonitrile] has an inhibition at 0.5 µM [2] of 100%, an inhibition at 10 µM [3] of 14% and an inhibition at 10 µM [4] of 1%.

With N#CC(=C1CCN(C(=O)N2CCc3nocc3C2)CC1)c1ccc(Cl)s1 [Compound 160, 2-(5-chlorothiophen-2-yl)-2-(1-(4,5,6,7-tetrahydroisoxazolo[4,3-c]pyridine-5-carbonyl)piperidin-4-ylidene)acetonitrile] the inhibition at 0.5 µM [2] was 99%, the inhibition at 10 µM [3] was 34% and the inhibition at 10 µM [4] was 18%.

N#CC(=C1CCN(C(=O)N2CCc3nocc3C2)CC1)c1ccc(Cl)cn1 [Compound 161, 2-(5-chloropyridin-2-yl)-2-(1-(4,5,6,7-tetrahydroisoxazolo[4,3-c]pyridine-5-carbonyl)piperidin-4-ylidene)acetonitrile] showed an inhibition at 0.5 µM [2] of 98%, an inhibition at 10 µM [3] of 19% and an inhibition at 10 µM [4] of 7%.

Compound N#CC(=C1CCN(C(=O)N2CCn3nncc3C2)CC1)c1ccc(OC(F)(F)F)cc1 [Compound 162, 2-(1-(4,5,6,7-tetrahydro-[1,2,3]triazolo[1,5-a]pyrazine-5-carbonyl)piperidin-4-ylidene)-2-(4-(trifluoromethoxy)phenyl)acetonitrile] has an inhibition at 0.5 µM [2] of 98%, an inhibition at 10 µM [3] of 17% and an inhibition at 10 µM [4] of 1%.

N#CC(=C1CCN(C(=O)N2CCn3nncc3C2)CC1)c1ccc(Cl)cn1 [Compound 163, 2-(5-chloropyridin-2-yl)-2-(1-(4,5,6,7-tetrahydro-[1,2,3]triazolo[1,5-a]pyrazine-5-carbonyl)piperidin-4-ylidene)acetonitrile] showed an inhibition at 0.5 µM [2] of 97%, an inhibition at 10 µM [3] of 2% and an inhibition at 10 µM [4] of 9%.

With N#CC(=C1CCN(C(=O)N2CCn3ncnc3C2)CC1)c1ccc(Cl)cc1 [Compound 164, 2-(4-chlorophenyl)-2-(1-(5,6,7,8-tetrahydro-[1,2,4]triazolo[1,5-a]pyrazine-7-carbonyl)piperidin-4-ylidene)acetonitrile] the inhibition at 0.5 µM [2] was 99%, the inhibition at 10 µM [3] was 12% and the inhibition at 10 µM [4] was 10%.

N#CC(=C1CCN(C(=O)N2CCn3ncnc3C2)CC1)c1ccc(Cl)cn1 [Compound 165, 2-(5-chloropyridin-2-yl)-2-(1-(5,6,7,8-tetrahydro-[1,2,4]triazolo[1,5-a]pyrazine-7-carbonyl)piperidin-4-ylidene)acetonitrile] gave an inhibition at 0.5 µM [2] of 95%, an inhibition at 10 µM [3] of 9% and an inhibition at 10 µM [4] of 6%.

Compound N#CC(=C1CCN(C(=O)N2CCn3ncnc3C2)CC1)c1cc(F)cc(F)c1 [Compound 166, 2-(3,5-difluorophenyl)-2-(1-(5,6,7,8-tetrahydro-[1,2,4]triazolo[1,5-a]pyrazine-7-carbonyl)piperidin-4-ylidene)acetonitrile] has an inhibition at 0.5 µM [2] of 96%, an inhibition at 10 µM [3] of 13% and an inhibition at 10 µM [4] of 2%.

With N#CC(=C1CCN(C(=O)N2CCn3ncnc3C2)CC1)c1ccc(OC(F)(F)F)cc1 [Compound 167, 2-(1-(5,6,7,8-tetrahydro-[1,2,4]triazolo[1,5-a]pyrazine-7-carbonyl)piperidin-4-ylidene)-2-(4-(trifluoromethoxy)phenyl)acetonitrile] the inhibition at 0.5 µM [2] was 97%, the inhibition at 10 µM [3] was 7% and the inhibition at 10 µM [4] was -1%.

In the case of N#CC(=C1CCN(C(=O)N2CCn3ncnc3C2)CC1)c1ccc(Cl)s1 [Compound 168, 2-(5-chlorothiophen-2-yl)-2-(1-(5,6,7,8-tetrahydro-[1,2,4]triazolo[1,5-a]pyrazine-7-carbonyl)piperidin-4-ylidene)acetonitrile], the inhibition at 0.5 µM [2] is reported as 98%, the inhibition at 10 µM [3] is reported as 24% and the inhibition at 10 µM [4] is reported as -2%.

With CN(C(=O)N1CCC(=C(C#N)c2ccc(Cl)cc2)CC1)C1COC1 [Compound 169, 4-((4-chlorophenyl)(cyano)methylene)-N-methyl-N-(oxetan-3-yl)piperidine-1-carboxamide] the inhibition at 0.5 µM [2] was 95%, the inhibition at 10 µM [3] was 7% and the inhibition at 10 µM [4] was -2%.

In the case of CCN(CC)C(=O)N1CCC(=C(C#N)c2ccc(OC(F)(F)F)cc2)CC1 [Compound 170, 4-(cyano(4-(trifluoromethoxy)phenyl)methylene)-N,N-diethylpiperidine-1-carboxamide], the inhibition at 0.5 µM [2] is reported as 98%, the inhibition at 10 µM [3] is reported as 4% and the inhibition at 10 µM [4] is reported as 28%.

Compound CCN(CC)C(=O)N1CCC(=C(C#N)c2ccc(C(F)(F)F)cc2)CC1 [Compound 171, 4-(cyano(4-(trifluoromethyl)phenyl)methylene)-N,N-diethylpiperidine-1-carboxamide] has an inhibition at 0.5 µM [2] of 99%, an inhibition at 10 µM [3] of 3% and an inhibition at 10 µM [4] of 17%.

Compound CCN(CC)C(=O)N1CCC(=C(C#N)c2ccc(F)cn2)CC1 [Compound 172, 4-(cyano(5-fluoropyridin-2-yl)methylene)-N,N-diethylpiperidine-1-carboxamide] has an inhibition at 0.5 µM [2] of 95%, an inhibition at 10 µM [3] of -2% and an inhibition at 10 µM [4] of 13%.

For CCN(CC)C(=O)N1CCC(=C(C#N)c2ccc(Cl)s2)CC1 [Compound 173, 4-((5-chlorothiophen-2-yl)(cyano)methylene)-N,N-diethylpiperidine-1-carboxamide], the inhibition at 0.5 µM [2] was 99%, the inhibition at 10 µM [3] was 29% and the inhibition at 10 µM [4] was 50%.
